Values joined by “and” are separate entries in the source; they are usually repeats but may differ in a detail not shown here. Equal values may be shown once. Results filed as inconclusive are left out.
System: MX-1 breast xenograft, intrarenal, nude mice, tumor weight
Assay: NCI In Vivo Anticancer Drug Screen. Data for tumor model Human Mammary Carcinoma MX-1 Xenograft (intrarenal inoculation) in NU/NU BALB/C (nude) mice
Details: endpoint: mean tumor weight change, higher = larger tumour
Outline: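 Mice w/ transplanted tumors, drug vs vehicle; endpoint survival or tumor size; value = T/C.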

Structure (SMILES): COc1cccc2c1[C@H]1CO[C@H]3C4C[C@H](C(=O)O)C([C@@H](C2)N13)N4C (stereo partly specified)
- T/C (dose: 1.25 mg/kg/injection, schedule: Q04DX003 (ip), vehicle: other): 50 % of control
- T/C (dose: 2.5 mg/kg/injection, schedule: Q04DX003 (ip), vehicle: other): 32 % of control and 33 % of control
- T/C (dose: 5.0 mg/kg/injection, schedule: Q04DX003 (ip), vehicle: other): 16 % of control and 19 % of control
- T/C (dose: 7.5 mg/kg/injection, schedule: Q04DX003 (ip), vehicle: water): 9 % of control
- T/C (dose: 10.0 mg/kg/injection, schedule: Q04DX003 (ip), vehicle: other): 8 % of control and 9 % of control
- T/C (dose: 15.0 mg/kg/injection, schedule: Q04DX003 (ip), vehicle: water): 2 % of control
- T/C (dose: 20.0 mg/kg/injection, schedule: Q04DX003 (ip), vehicle: other): 2 % of control
- T/C (dose: 30.0 mg/kg/injection, schedule: Q04DX003 (ip), vehicle: water): 2 % of control

Structure (SMILES): CC1(C)COCN1COCCOCN1COCC1(C)C
- T/C (dose: 200.0 mg/kg/injection, schedule: Q04DX003 (sc), vehicle: saline): 77 % of control
- T/C (dose: 400.0 mg/kg/injection, schedule: Q04DX003 (sc), vehicle: saline): 83 % of control

Structure (SMILES): NNC(=S)N/N=C/c1ccccn1
- T/C (dose: 15.0 mg/kg/injection, schedule: Q04DX003 (sc), vehicle: saline with Tween-80): 116 % of control
- T/C (dose: 30.0 mg/kg/injection, schedule: Q04DX003 (sc), vehicle: saline with Tween-80): 96 % of control
- T/C (dose: 60.0 mg/kg/injection, schedule: Q04DX003 (sc), vehicle: saline with Tween-80): 123 % of control

Structure (SMILES): CCOC(=O)NC1=C(N2CC2)C(=O)C(NC(=O)OCC)=C(N2CC2)C1=O
- T/C (dose: 1.56 mg/kg/injection, schedule: Q01DX010 (sc), vehicle: saline): 45 % of control
- T/C (dose: 3.13 mg/kg/injection, schedule: Q01DX010 (sc), vehicle: saline): 13 % of control
- T/C (dose: 6.25 mg/kg/injection, schedule: Q01DX010 (sc), vehicle: saline): -75 % of control

Structure (SMILES): N[C@@H](Cc1ccc(N(CCCl)CCCl)cc1)C(=O)O
- T/C (dose: 1.0 mg/kg/injection, schedule: Q01DX010 (sc), vehicle: saline): 1 % of control and 3 % of control
- T/C (dose: 1.0 mg/kg/injection, schedule: Q04DX003 (sc), vehicle: saline): 88 % of control
- T/C (dose: 1.5 mg/kg/injection, schedule: Q04DX003 (sc), vehicle: saline): 49 % of control
- T/C (dose: 2.0 mg/kg/injection, schedule: Q01DX010 (sc), vehicle: saline): -85 % of control and -79 % of control
- T/C (dose: 2.0 mg/kg/injection, schedule: Q04DX003 (ip), vehicle: saline with Tween-80): -48 % of control and -38 % of control
- T/C (dose: 2.0 mg/kg/injection, schedule: Q04DX003 (sc), vehicle: saline): 17 % of control
- T/C (dose: 3.0 mg/kg/injection, schedule: Q04DX003 (sc), vehicle: saline): 3 % of control
- T/C (dose: 4.0 mg/kg/injection, schedule: Q01DX010 (sc), vehicle: saline): -92 % of control and -70 % of control
- T/C (dose: 4.0 mg/kg/injection, schedule: Q04DX003 (ip), vehicle: saline with Tween-80): -94 % of control and -93 % of control
- T/C (dose: 4.0 mg/kg/injection, schedule: Q04DX003 (sc), vehicle: saline): -9 % of control
- T/C (dose: 6.0 mg/kg/injection, schedule: Q04DX003 (sc), vehicle: saline): -87 % of control
- T/C (dose: 8.0 mg/kg/injection, schedule: Q01DX010 (sc), vehicle: saline): -87 % of control
- T/C (dose: 8.0 mg/kg/injection, schedule: Q04DX003 (ip), vehicle: saline with Tween-80): -100 % of control and -99 % of control
- T/C (dose: 8.0 mg/kg/injection, schedule: Q04DX003 (sc), vehicle: saline): -89 % of control
- T/C (dose: 12.0 mg/kg/injection, schedule: Q04DX003 (sc), vehicle: saline): -96 % of control

Structure (SMILES): O=C1CN(CCN2CC(=O)N(CN3CCOCC3)C(=O)C2)CC(=O)N1CN1CCOCC1
- T/C (dose: 150.0 mg/kg/injection, schedule: Q04DX003 (ip), vehicle: water): 56 % of control
- T/C (dose: 300.0 mg/kg/injection, schedule: Q04DX003 (ip), vehicle: water): 58 % of control

Structure (SMILES): O=C1C=CC(=CC=C2C=CN(CCCCCCCCCCCO)C=C2)C=C1
- T/C (dose: 12.5 mg/kg/injection, schedule: Q04DX003 (ip), vehicle: saline with Tween-80): 89 % of control
- T/C (dose: 25.0 mg/kg/injection, schedule: Q04DX003 (ip), vehicle: saline with Tween-80): 84 % of control
- T/C (dose: 50.0 mg/kg/injection, schedule: Q04DX003 (ip), vehicle: saline with Tween-80): 69 % of control

— PubChem BioAssay AID298 (DTP/NCI, 2004)
